Laboratory results from patent US20250352464A1, “TOPICAL COMPOSITIONS AND METHODS FOR TREATING DERMATOPOROSIS” (GALDERMA HOLDING SA, priority 2023, published 2025).

Tests used:
[1] = system: human primary adult dermal fibroblasts and human primary adult dermal keratinocytes; details: 24 h
Method: To determine suitable dosing of Centella asiatica extract and mandelic acid, human primary adult dermal fibroblasts and human primary adult dermal keratinocytes were purchased from ZenBio (https://www.zen-bio.com/, Durham, NC) and plated as per the provided ZenBio protocols in the recommended media from ZenBio.
Approximately 10k cells were plated per well in each well of a 96-well plate. […] Centella asiatica extract concentrations ranged from 0.00025% to 0.25%, in 2× steps. […] After 24 hours of treatment, an alamar blue assay was performed. The plate was then read in an Envision plate reader with 560 nm excitation and 590 nm emission filters to determine cell viability.

[2] = system: human keratinocytes; test: in vitro gene expression analysis (RNA sequencing) in keratinocytes; type: cell-based; details: 72 hrs, mandelic acid 0.05%
Source text: Genes were annotated using the Reactome Database.

[3] = human keratinocytes grown to confluence, Centella asiatica extract 0.005%, combination same concentrations, vs untreated cells

O=C(O)C(O)c1ccccc1 (stereo not drawn) [Mandelic Acid, mandelic acid]
highest concentration not resulting in cytotoxicity [1]: 0.05% | Modulation of Gene Expression (Fold Change): CEBPB [2, 3]: −2.45 Fold Change | Modulation of Gene Expression (Fold Change): HIST1H2BD [2, 3]: 0.55 Fold Change | Modulation of Gene Expression (Fold Change): HIST1H2BG [2, 3]: 0.45 Fold Change | Modulation of Gene Expression (Fold Change): HIST1H3D [2, 3]: −0.23 Fold Change | Modulation of Gene Expression (Fold Change): HIST1H4E [2, 3]: 0.60 Fold Change | Modulation of Gene Expression (Fold Change): HIST1H4H [2, 3]: −0.54 Fold Change | Modulation of Gene Expression (Fold Change): IL1B [2, 3]: 1.73 Fold Change | Modulation of Gene Expression (Fold Change): IL8 [2, 3]: −1.46 Fold Change | Modulation of Gene Expression (Fold Change): TNF [2, 3]: −2.69 Fold Change | Modulation of Gene Expression (Fold Change): UBB [2, 3]: −3.87 Fold Change | Modulation of Gene Expression (Fold Change): UBC [2, 3]: −1.09 Fold Change | Modulation of Gene Expression (Fold Change): UBE2C [2, 3]: 0.51 Fold Change | expression of p15 (CDKN2B) ([2]; human keratinocytes, Centella 0.005%, FIG. 5): upregulate | pro-inflammatory gene expression (MMP2, HSPA8, CSF2RA, CXCL1, IL2RB, NFKBIA, PTG52) ([2]; human keratinocytes, Centella 0.005%, FIGS. 4A-4G): significantly downregulated
